We go through 21 molecules from patent US7915238B2, “Immunomodulatory compounds and methods of use thereof” (Eisai R & D Management Co., Ltd., priority 1999, dated 2011).

pEC50: −log10 of the molar value.

The first assay relates to Human Whole Blood. Nature of the assay: Cytokine release in human whole blood (ELISA). Type of assay: cell-based. Particulars: Homo sapiens; whole blood; vs. % of LPS at 10 ng/ml; read-out: WB ED50 vs LPS@ 10 ng/ml. As for the experimental part:
The most readily available human system to test compound activity on monocytes/macrophages is in whole blood. Various concentrations of compounds of the invention were added as 10× stocks in 50 μl of Ca^++, Mg^++-free Hank's balanced salt solution (HBSS) followed by 50 μl of HBSS into 400 μl of heparinized whole blood obtained from normal volunteers (18-51 years old; 110-230 lb.) into the wells of plastic assay plates, for a total volume of 500 μl/well (final concentration of whole blood was 80%). After a 3-hour incubation with gentle shaking at 37° C. in a 5% CO2 atmosphere, the assay plates were centrifuged at 1000×g for 10 min. at 4° C. and plasma was drawn off and frozen at −80° C. Plasma samples were analyzed for TNF-alpha, IL-10, and IL-12 by ELISA (Genzyme Corp., Cambridge, Mass.). Each assay point was tested in triplicate.
This stimulatory activity can be compared to that of 10 ng/ml endotoxin (or LPS) present in similar incubations in the same assay.
In the case of `CCCCCCCCCCCCCC(=O)N[C@@H](CC[N+](C)(C)CCCNC(=O)NCCC[N+](C)(C)CC[C@@H](COC(=O)C[C@@H](CCCCCCC)OC(=O)CCCCCCCCCCC)NC(=O)CCCCCCCCCCCCC)COC(=O)C[C@@H](CCCCCCC)OC(=O)CCCCCCCCCCC` [compound 804947], the pEC50 is less than 5.00.

Staying with this assay, now noted: TNF-alpha release; compounds tested at 10 μM; compared to 10 ng/ml LPS; 3-hour incubation.
As for `CCCCCC/C=C\CCCC(=O)O[C@H](CCCCCCC)CCOCC(COP(=O)([O-])OCCNC(=O)NCCOP(=O)([O-])OCC(COCC[C@@H](CCCCCCC)OC(=O)CCC/C=C\CCCCCC)NC(=O)CC(=O)CCCCCCCCCCC)NC(=O)CC(=O)CCCCCCCCCCC.[Na+].[Na+]` (stereo partly shown) [compound 111232], the “TNF-alpha release in whole blood at 10 μM compound (% of 10 ng/ml LPS response)” value (“TNF-alpha release … (% of 10 ng/ml LPS response)” for short) is listed as 158 % of LPS.

With `CCCCCCCCCCCCCC(=O)NC(COCC[C@@H](CCCCCCC)OC(=O)CCCCCCCCCCC)COP(=O)([O-])OCCNC(=O)CC(=O)NCCOP(=O)([O-])OCC(COCC[C@@H](CCCCCCC)OC(=O)CCCCCCCCCCC)NC(=O)CCCCCCCCCCCCC.[Na+].[Na+]` (stereo partly shown) [compound 803056], the “TNF-alpha release … (% of 10 ng/ml LPS response)” value is given as 151 ± 42 % of LPS. With `CCCCCCCCCCCCCC(=O)O[C@@H](COCC[C@@H](CCCCCCC)OC(=O)CCCCCCCCCCC)COP(=O)([O-])OCCNC(=O)CC(=O)NCCOP(=O)([O-])OC[C@H](COCC[C@@H](CCCCCCC)OC(=O)CCCCCCCCCCC)OC(=O)CCCCCCCCCCCCC.[Na+].[Na+]` [compound 803059], the “TNF-alpha release … (% of 10 ng/ml LPS response)” value is on record as 2 % of LPS. Still for that read-out and setting: the value for `CCCCCCCCCCCCCC(=O)O[C@@H](COCC[C@@H](CCCCCCC)OC(=O)CCCCCCCCCCC)COP(=O)([O-])OCCNC(=O)NCCOP(=O)([O-])OC[C@H](COCC[C@@H](CCCCCCC)OC(=O)CCCCCCCCCCC)OC(=O)CCCCCCCCCCCCC.[Na+].[Na+]` [compound 803592] was 15 % of LPS.

The same assay, now with this note: whole blood; (576-021) + EtOH; read-out: WB ED50 vs LPS@ 10 ng/ml.
On to `CCCCCCCCCCCCCCN[C@@H](COCC[C@@H](CCCCCCC)OC(=O)CCCCCCCCCCC)COP(=O)(O)OCCNC(=O)NCCOP(=O)(O)OC[C@H](COCC[C@@H](CCCCCCC)OC(=O)CCCCCCCCCCC)NCCCCCCCCCCCCCC` [compound 804252], for which the pEC50 was 6.40.

The same assay, now with this note: whole blood; vs. % of LPS at 10 ng/ml; read-out: WB ED50 vs LPS@ 10 ng/ml.
For `CCCCCC/C=C\CCCC(=O)O[C@H](CCCCCCC)CCOCC(COP(=O)([O-])OCCNC(=O)CCCCCCCCC(=O)NCCOP(=O)([O-])OCC(COCC[C@@H](CCCCCCC)OC(=O)CCC/C=C\CCCCCC)NC(=O)CC(=O)CCCCCCCCCCC)NC(=O)CC(=O)CCCCCCCCCCC.[Na+].[Na+]` (stereo partly shown) [compound 111231], the pEC50 was 6.54.

For the molecule `CCCCCCCCCCCCCC(=O)O[C@@H](COCC[C@@H](CCCCCCC)OC(=O)CCCCCCCCCCC)COP(=O)([O-])OCCNC(=O)CC(=O)NCCOP(=O)([O-])OC[C@H](COCC[C@@H](CCCCCCC)OC(=O)CCCCCCCCCCC)OC(=O)CCCCCCCCCCCCC.[Na+].[Na+]` [compound 803059], the pEC50 was 6.05. The same measure, in the same setting: the value for `CCCCCCCCCCCCCC(=O)N[C@H](COCC[C@@H](CCCCCCC)OC(=O)CCCCCCCCCCC)COP(=O)(O)OCCNC(=O)CC(=O)NCCOP(=O)(O)OC[C@H](COCC[C@@H](CCCCCCC)OC(=O)CCCCCCCCCCC)NC(=O)CCCCCCCCCCCCC` [compound 803731] was less than 5.00; that for `CCCCCCCCCCCCCC(=O)N[C@H](COCC[C@@H](CCCCCCC)OC(=O)CCCCCCCCCCC)COP(=O)(O)OCCNC(=O)CC(=O)NCCOP(=O)(O)OC[C@H](COCC[C@@H](CCCCCCC)OC(=O)CCCCCCCCCCC)NC(=O)CCCCCCCCCCCCC` [compound 803733] was 6.15. On the same count and under the same terms, with `CCCCCCCCCCCCCC(=O)N[C@H](COCC[C@@H](CCCCCCC)OC(=O)CCCCCCCCCCC)COP(=O)(O)OCCNC(=O)NCCOP(=O)(O)OC[C@H](COCC[C@@H](CCCCCCC)OC(=O)CCCCCCCCCCC)NC(=O)CCCCCCCCCCCCC` [compound 803789] the figure was 7.00.

For `CCCCCC/C=C\CCCC(=O)O[C@H](CCCCCCC)CCOC[C@@H](COP(=O)(O)OCCNC(=O)CC(=O)NCCOP(=O)(O)OC[C@H](COCC[C@@H](CCCCCCC)OC(=O)CCC/C=C\CCCCCC)NC(=O)CC(=O)CCCCCCCCCCC)NC(=O)CC(=O)CCCCCCCCCCC` [compound 804061], the pEC50 was 5.60.

`CCCCCCCCCCCC(=O)CC(=O)N[C@H](COCC[C@@H](CCCCCCC)OC(=O)CCCCCCCCCCC)COP(=O)(O)OCCNC(=O)NCCOP(=O)(O)OC[C@H](COCC[C@@H](CCCCCCC)OC(=O)CCCCCCCCCCC)NC(=O)CC(=O)CCCCCCCCCCC` [compound 804097]: the pEC50 was 6.52.

As to `CCCCCCCCCCCCCC(=O)N[C@H](COCC[C@H](CCCCCCC)CCCCCCCCCCCC)COP(=O)(O)OCCNC(=O)NCCOP(=O)(O)OC[C@@H](COCC[C@H](CCCCCCC)CCCCCCCCCCCC)NC(=O)CCCCCCCCCCCCC` [compound 804121], the pEC50 was 6.34.

As to `CCCCCCCCCCCCCC(=O)N[C@H](COCC[C@H](CCCCCCC)CCCCCCCCCCCC)COP(=O)(O)OCCNC(=O)NCCOP(=O)(O)OC[C@@H](COCC[C@H](CCCCCCC)CCCCCCCCCCCC)NC(=O)CCCCCCCCCCCCC` [compound 804130], the pEC50 is 6.18. The same measure, in the same setting: the value for `CCCCCCCCCCCC(=O)NCC(=O)N[C@H](COCC[C@@H](CCCCCCC)OC(=O)CCCCCCCCCCC)COP(=O)(O)OCCNC(=O)NCCOP(=O)(O)OC[C@@H](COCC[C@@H](CCCCCCC)OC(=O)CCCCCCCCCCC)NC(=O)CNC(=O)CCCCCCCCCCC` [compound 804221] was 5.66.

`CCCCCCCCCCCCCC(=O)N[C@H](COCC[C@H](CCCCCCC)NC(=O)CCCCCCCCCCC)COP(=O)(O)OCCNC(=O)NCCOP(=O)(O)OC[C@@H](COCC[C@H](CCCCCCC)NC(=O)CCCCCCCCCCC)NC(=O)CCCCCCCCCCCCC` [compound 804253]: the pEC50 was less than 5.00.

Regarding `CCCCCCCCCCCCCCN[C@H](COCC[C@@H](CCCCCCC)OC(=O)CCCCCCCCCCC)COP(=O)(O)OCCNC(=O)NCCOP(=O)(O)OC[C@@H](COCC[C@@H](CCCCCCC)OC(=O)CCCCCCCCCCC)NCCCCCCCCCCCCCC` [compound 804281], the pEC50 is 6.35. For `CCCCCCCCCCCCC(O)C(=O)N[C@H](COCC[C@@H](CCCCCCC)OC(=O)CCCCCCCCCCC)COP(=O)(O)OCCNC(=O)NCCOP(=O)(O)OC[C@@H](COCC[C@@H](CCCCCCC)OC(=O)CCCCCCCCCCC)NC(=O)C(O)CCCCCCCCCCCC` (stereo partly shown) [compound 804313], the pEC50 is 7.85. Take `CCCCCCCCCCCCCCN(C(C)=O)[C@H](COCC[C@@H](CCCCCCC)OC(=O)CCCCCCCCCCC)COP(=O)(O)OCCNC(=O)NCCOP(=O)(O)OC[C@@H](COCC[C@@H](CCCCCCC)OC(=O)CCCCCCCCCCC)N(CCCCCCCCCCCCCC)C(C)=O` [compound 804339]: the pEC50 was 5.97. Still for that read-out and setting: with `CCCCCCCCCCCCCC(=O)N[C@H](COCC[C@@H](CCCCCCC)OCCCCCCCCCCCC)COP(=O)(O)OCCNC(=O)NCCOP(=O)(O)OC[C@@H](COCC[C@@H](CCCCCCC)OCCCCCCCCCCCC)NC(=O)CCCCCCCCCCCCC` [compound 804372] the figure was 6.40.

The test system of a further assay is THP-1 cells. The assay is described as follows: TNF-alpha promoter secreted alkaline phosphatase (TNF-PLAP) reporter in THP-1 cells. Particulars: +serum. Type of assay: cell-based, human. As for the experimental part:
Similar results can be obtained when compounds of the invention are tested in a cell-culture model. In this assay, compounds of the invention are tested for their ability to stimulate secretion of alkaline phosphatase from THP-1 cells that have been transfected with the gene for secreted alkaline phosphatase under the control of the TNF-alpha promoter, as described in detail in Goto et al., Molecular Pharmacology 49; 860-873 (1996). In this assay, however, the effects of removing serum^1—a condition that may more-likely mimic a subcutaneous environment—can be evaluated. As shown in FIG. 2 and described in Table 1, results from these assays indicate that compounds of the invention stimulate induction of genes under the control of the TNF-alpha promoter when added to cells in the absence as well as the presence of serum. ^1 This is important to determine if serum components such as lipopolysaccharide binding protein are necessary for drug activity.
Consider `CCCCCC/C=C\CCCC(=O)O[C@H](CCCCCCC)CCOCC(COP(=O)([O-])OCCNC(=O)CCCCCCCCC(=O)NCCOP(=O)([O-])OCC(COCC[C@@H](CCCCCCC)OC(=O)CCC/C=C\CCCCCC)NC(=O)CC(=O)CCCCCCCCCCC)NC(=O)CC(=O)CCCCCCCCCCC.[Na+].[Na+]` (stereo partly shown) [compound 111231], for which the “THP-1 cell Stimulation (% of compound 100 at 10 μM) +serum” value is recorded as 17 % of compound 100 at 10 μM. Still for that read-out and setting: the value for `CCCCCC/C=C\CCCC(=O)O[C@H](CCCCCCC)CCOCC(COP(=O)([O-])OCCNC(=O)NCCOP(=O)([O-])OCC(COCC[C@@H](CCCCCCC)OC(=O)CCC/C=C\CCCCCC)NC(=O)CC(=O)CCCCCCCCCCC)NC(=O)CC(=O)CCCCCCCCCCC.[Na+].[Na+]` (stereo partly shown) [compound 111232] was 155 % of compound 100 at 10 μM; that for `CCCCCC/C=C\CCCC(=O)O[C@H](CCCCCCC)CCOCC(COP(=O)([O-])OCCNC(=O)CCC(=O)NCCOP(=O)([O-])OCC(COCC[C@@H](CCCCCCC)OC(=O)CCC/C=C\CCCCCC)NC(=O)CC(=O)CCCCCCCCCCC)NC(=O)CC(=O)CCCCCCCCCCC.[Na+].[Na+]` (stereo partly shown) [compound 111233] was 141 % of compound 100 at 10 μM.

The same assay, now with this note: −serum.
Regarding `CCCCCC/C=C\CCCC(=O)O[C@H](CCCCCCC)CCOCC(COP(=O)([O-])OCCNC(=O)NCCOP(=O)([O-])OCC(COCC[C@@H](CCCCCCC)OC(=O)CCC/C=C\CCCCCC)NC(=O)CC(=O)CCCCCCCCCCC)NC(=O)CC(=O)CCCCCCCCCCC.[Na+].[Na+]` (stereo partly shown) [compound 111232], the “THP-1 cell Stimulation (% of compound 100 at 10 μM) −serum” value is 225 % of compound 100 at 10 μM.
